Laboratory results published in patent publication US20260184707A1, “PHARMACEUTICAL COMPOUNDS FOR THE TREATMENT OF COMPLEMENT MEDIATED DISORDERS” (ALEXION PHARMACEUTICALS, INC., priority 2022, published 2026).

molecular target: T1, Human complement C1s enzyme (Homo sapiens, UniProt P09871); assay: Human C1s enzyme assay; format: biochemical; conditions: human complement C1s enzyme 1.16 nM, substrate Z-L-Lys-SBzl, A405; read-out: IC50 (Stars)
T1 construct: purified from human serum, Complement Technology, Inc; purchased Complement Technology, Inc; host or cells: human serum (plasma-derived native protein)
T1 sequence (P09871 438-688 limits assumed): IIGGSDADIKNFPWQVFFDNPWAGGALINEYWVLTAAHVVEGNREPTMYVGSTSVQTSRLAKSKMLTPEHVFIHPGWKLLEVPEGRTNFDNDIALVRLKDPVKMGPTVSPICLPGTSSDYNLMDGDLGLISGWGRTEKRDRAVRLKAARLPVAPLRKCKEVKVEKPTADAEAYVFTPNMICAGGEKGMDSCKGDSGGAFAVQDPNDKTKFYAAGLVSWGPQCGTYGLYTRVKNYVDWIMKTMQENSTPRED
T1 sequence (P09871 16-437 partner limits assumed): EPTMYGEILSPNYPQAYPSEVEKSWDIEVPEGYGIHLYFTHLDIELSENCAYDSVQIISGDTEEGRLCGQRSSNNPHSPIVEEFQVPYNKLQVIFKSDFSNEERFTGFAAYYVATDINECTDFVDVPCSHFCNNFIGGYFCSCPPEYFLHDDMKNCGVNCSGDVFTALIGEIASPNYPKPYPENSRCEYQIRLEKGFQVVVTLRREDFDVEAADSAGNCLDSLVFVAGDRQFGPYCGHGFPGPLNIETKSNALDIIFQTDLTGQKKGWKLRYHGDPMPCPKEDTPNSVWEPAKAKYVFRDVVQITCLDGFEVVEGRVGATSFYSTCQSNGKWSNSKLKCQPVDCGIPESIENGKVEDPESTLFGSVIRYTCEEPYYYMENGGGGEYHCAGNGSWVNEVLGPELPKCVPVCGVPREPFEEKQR
How it was run: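 Thioesterase activity followed colorimetrically (DTNB, A405, 30-s reads) using 100 μM Z-L-Lys-SBzl substrate. Enzyme, human serum-derived C1s at 1.16 nM final, was incubated with test compound for 5 min, room temperature, pH 7.5 Tris buffer with 1 M NaCl. Rate-versus-concentration data fitted by nonlinear regression for IC50.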

IC50 [nM]	SMILES
< 100	O=C(Cn1c(-c2ccccc2)ncc(NC(=O)C2CCC(Oc3ccccc3)CC2)c1=O)NCc1cc2cnccc2[nH]1 (stereo not drawn) [Compound 49, N-[6-oxo-1-[2-oxo-2-(1H-pyrrolo[3,2-c]pyridin-2-ylmethylamino)ethyl]-2-phenyl-pyrimidin-5-yl]-4-phenoxy-cyclohexanecarboxamide]
100 to 1000	C[C@@H](Nc1cnc(-c2nccs2)n(CC(=O)NCc2cc3cnccc3[nH]2)c1=O)c1ccc2oc3ccccc3c2c1 [Compound 340, (R)-N-((1H-pyrrolo[3,2-c]pyridin-2-yl)methyl)-2-(5-((1-(dibenzo[b,d]furan-2-yl)ethyl)-amino)-6-oxo-2-(thiazol-2-yl)-pyrimidin-1(6H)-yl)acetamide]
100 to 1000	O=C(Cn1c(-c2ccccc2)ncc(N2CC3CCC2C3)c1=O)NCc1cc2cnccc2[nH]1 (stereo not drawn) [Compound 65, N-((1H-pyrrolo[3,2-c]pyridin-2-yl)methyl)-2-(5-(2-azabicyclo [2.2.1]heptan-2-yl)-6-oxo-2-phenylpyrimidin-1(6H)-yl)-acetamide]
< 100	C[C@@H](Nc1ncc(N2CCC(O)CC2)n(CC(=O)NCc2cc3cnccc3[nH]2)c1=O)c1ccc2oc3ccccc3c2c1 [Compound 470, (R)-N-((1H-pyrrolo[3,2-c]pyridin-2-yl)methyl)-2-(3-((1-(dibenzo[b,d]furan-2-yl)ethyl)-amino)-6-(4-hydroxypiperidin-1-yl)-2-oxopyrazin-1(2H)-yl)-acetamide]
< 100	O=C(Cn1c(-c2cccc(F)c2)ncc(NCc2ccc3oc4ccccc4c3c2)c1=O)NCc1cc2cnccc2[nH]1 [Compound 117, N-((1H-pyrrolo[3,2-c]pyridin-2-yl)methyl)-2-(5-((dibenzo [b,d]furan-2-ylmethyl)amino)-2-(3-fluorophenyl)-6-oxopyr-imidin-1(6H)-yl)acetamide]
< 100	CC1(c2ccc(CCCNc3cnc(-c4ccccc4)n(CC(=O)NCc4cc5cnccc5[nH]4)c3=O)cc2)COC1 [Compound 180, N-((1H-pyrrolo[3,2-c]pyridine-2-yl)methyl)-2-(5-((3-(4-(3-methyloxetan-3-yl)phenyl)propyl)amino)-6-oxo-2-phenylpyrimidin-1(6H)-yl)acetamide]
100 to 1000	C[C@@H](Nc1ncc(N2CCCC2)n(CC(=O)NCc2cc3cnccc3[nH]2)c1=O)c1ccc2oc3ccccc3c2c1 [Compound 440, (R)-N-((1H-pyrrolo[3,2-c]pyridin-2-yl)methyl)-2-(3-((1-(dibenzo[b,d]furan-2-yl)ethyl)-amino)-2-oxo-6-(pyrrolidin-1-yl)pyrazin-1(2H)-yl)acetamide]
< 100	COc1ccc(-c2ncc(NCc3ccc4oc5ccccc5c4c3)c(=O)n2CC(=O)NCc2cc3cnccc3[nH]2)cc1 [Compound 119, N-((1H-pyrrolo[3,2-c]pyridin-2-yl)methyl)-2-(5-((dibenzo [b,d]furan-2-ylmethyl)amino)-2-(4-methoxyphenyl)-6-oxo-pyrimidin-1(6H)-yl)acetamide]
< 100	C[C@@H](Nc1cnc(-c2cncs2)n(CC(=O)NCc2cc3cnccc3[nH]2)c1=O)c1ccc2oc3ccccc3c2c1 [Compound 358, (R)-N-((1H-pyrrolo[3,2-c]pyridin-2-yl)methyl)-2-(5-((1-(dibenzo[b,d]furan-2-yl)ethyl)-amino)-6-oxo-2-(thiazol-5-yl)-pyrimidin-1(6H)-yl)acetamide]
> 1000	O=C(NCCn1c(-c2ccccc2)ncc(NCc2ccc3oc4ccccc4c3c2)c1=O)c1cc2cnccc2[nH]1 [Compound 267, N-(2-(5-((dibenzo[b,d]furan-2-ylmethyl)amino)-6-oxo-2-phenylpyrimidin-1(6H)-yl)-ethyl)-1H-pyrrolo[3,2-c]pyr-idine-2-carboxamide]
< 100	C[C@@H](Nc1ncc(C2=CCOCC2)n(CC(=O)NCc2cc3cnccc3[nH]2)c1=O)c1ccc2oc3ccccc3c2c1 [Compound 426, (R)—N-((1H-Pyrrolo[3,2-c]pyridine-2-yl)methyl)-2-(3-((1-(dibenzo[b,d]furan-2-yl)ethyl)amino)-6-(3,6-dihydro-2H-pyran-4-yl)-2-oxopyrazin-1(2H)-yl)acetamide]
< 100	O=C(Cn1c(-c2ccccc2)ncc(NC(=O)c2coc(-c3cccc(F)c3)n2)c1=O)NCc1cc2cnccc2[nH]1 [Compound 205, N-(1-(2-(((1H-pyrrolo[3,2-c]pyridine-2-yl)methyl)amino)-2-oxoethyl)-6-oxo-2-phenyl-1,6-dihydropyrimidin-5-yl)-2-(3-fluorophenyl)oxazole-4-carboxamide]
< 100	O=C(Cn1c(-c2ccccc2)ncc(NCc2ccc3oc4ccccc4c3c2)c1=O)NCc1cc2cnccc2s1 [Compound 141, 2-(5-((Dibenzo[b,d]furan-2-ylmethyl)amino)-6-oxo-2-phenylpyrimidin-1(6H)-yl)-N-(thieno[3,2-c]pyridin-2-ylmethyl)acetamide]
< 100	O=C(Cn1c(-c2ccccc2)ncc(NC(=O)c2ccc(-c3ccsc3)cc2)c1=O)NCc1cc2cnccc2[nH]1 [Compound 75, N-(1-(2-(((1H-pyrrolo[3,2-c]pyridin-2-yl)methyl)amino)-2-oxoethyl)-6-oxo-2-phenyl-1,6-dihydropyrimidin-5-yl)-4-(thiophen-3-yl)benzamide]
< 100	C[C@H](Nc1cnc(-c2cccs2)n(CC(=O)NCc2cc3cnccc3[nH]2)c1=O)c1ccc2oc3ccccc3c2c1 [Compound 286, (S)-N-((1H-pyrrolo[3,2-c]pyr-idin-2-yl)methyl)-2-(5-((1-(dibenzo[b,d]furan-2-yl)ethyl)-amino)-6-oxo-2-(thiophen-2-yl)pyrimidin-1(6H)-yl)acet-amide]
< 100	O=C(Cn1c(-c2ccccc2)ncc(NC(=O)c2cnc(-c3ccccc3)s2)c1=O)NCc1cc2cnccc2[nH]1 [Compound 106, N-(1-(2-(((1H-pyrrolo[3,2-c]pyridin-2-yl)methyl)amino)-2-oxoethyl)-6-oxo-2-phenyl-1,6-dihydropyrimidin-5-yl)-2-phenylthiazole-5-carboxamide]
< 100	CS(=O)(=NC#N)c1ccc(-c2ncc(NCCCc3ccccc3)c(=O)n2CC(=O)NCc2cc3cnccc3[nH]2)cc1 (stereo not drawn) [Compound 114, N-((1H-pyrrolo[3,2-c]pyridine-2-yl)methyl)-2-(2-(4-(N-cyano-S-methylsulfonimidoyl)phenyl)-6-oxo-5-((3-phenylpropyl)amino)pyrimidin-1(6H)-yl)acetamide]
> 1000	O=C(Cn1c(-c2ccccc2)ncc(-c2nc3ccccc3[nH]2)c1=O)NCc1cc2cnccc2[nH]1 [Compound 82, 2-(5-(1H-benzo[d]pyridine-2-yl)-6-oxo-2-phenylpyrimidin-1(6H)-yl)-N-((1H-pyrrolo[3,2-c]pyridine-2-yl)methyl)acetamide]
< 100	O=C(Cn1c(-c2ccc(OC3COC3)cc2)ncc(NCc2ccc3oc4ccccc4c3c2)c1=O)NCc1cc2cnccc2[nH]1 [Compound 130, N-((1H-pyrrolo[3,2-c]pyridine-2-yl)methyl)-2-(5-((dibenzo[b,d]furan-2-ylmethyl)amino)-2-(4-(oxetan-3-yloxy)phenyl)-6-oxopyrimidin-1(6H)-yl)acetamide]
< 100	Cc1cn(CC(=O)NCc2cc3cnccc3[nH]2)c(=O)c(N[C@H](C)c2ccc3oc4ccccc4c3c2)n1 [Compound 333, (R)—N-((1H-pyrrolo[3,2-c]pyridine-2-yl)methyl)-2-(3-((1-(dibenzo[b,d]furan-2-yl)ethyl)amino)-5-methyl-2-oxopyrazin-1(2H)-yl)acetamide]
< 100	O=C(Cn1c(-c2ccccc2)cnc(NCc2ccc3oc4ccccc4c3c2)c1=O)NCc1cc2cnccc2[nH]1 [Compound 176, N-((1H-pyrrolo[3,2-c]pyridin-2-yl)methyl)-2-(3-((dibenzo [b,d]furan-2-ylmethyl)amino)-2-oxo-6-phenylpyrazin-1(2H)-yl)acetamide]
< 100	O=C(Cn1c(-c2ccccc2)ncc(NC(=O)c2ccc(Oc3ccccc3Cl)cc2)c1=O)NCc1cc2cnccc2[nH]1 [Compound 72, N-(1-(2-(((1H-pyrrolo[3,2-c]pyridin-2-yl)methyl)amino)-2-oxoethyl)-6-oxo-2-phenyl-1,6-dihydropyrimidin-5-yl)-4-(2-chlorophenoxy)benzamide]
< 100	O=C(Cn1cncc(NCc2cc(-c3ccccc3)ns2)c1=O)NCc1cc2cnccc2[nH]1 [Compound 484, N-((1H-pyrrolo[3,2-c]pyridin-2-yl)methyl)-2-(6-oxo-5-(((3-phenylisothiazol-5-yl)methyl)-amino)pyrimidin-1(6H)-yl)-acetamide]

SMILES	IC50 [nM]
CCOP(=O)(COc1ccc(-c2ncc(NCCCc3ccccc3)c(=O)n2CC(=O)NCc2cc3cnccc3[nH]2)cc1)OCC [Compound 89, diethyl ((4-(1-(2-(((1H-pyrrolo[3,2-c]pyridine-2-yl)methyl)amino)-2-oxoethyl)-6-oxo-5-((3-phenylpropyl)amino)-1,6-dihydropyrimidin-2-yl)phenoxy)methyl)phosphonate]	< 100
